This note sets out measurements from patent US20240367098A1, “CARBON DIOXIDE ABSORBENT, METHOD FOR RECOVERING CARBON DIOXIDE, AND APPARATUS FOR SEPARATING AND RECOVERING CARBON DIOXIDE” (MITSUBISHI GAS CHEMICAL COMPANY, INC., priority 2021, published 2024).

Common to all, as to type: physicochemical
Data set [1] is described as follows: Acid dissociation constant (pKa) of amine compound (acid-base titration). The following applies: 25±2° C., in purified water. As for the experimental part: The acid dissociation constant of the amine compound was determined by the following method. • (1) Dissolving 0.2 g of the amine compound in 30 mL of the purified water. • (2) Calculating the acid dissociation constant (pKa) by titrating the solution obtained in the above (1) with the 0.1 N perchloric acid-acetic acid solution using the automatic potentiometric titrator (AT-610 produced by Kyoto Electronics Manufacturing Co., Ltd.).
Still, let the temperature at the time of measurement be 25±2° C.

A short description of data set [2]: Maximum carbon dioxide (CO2) release temperature of amine compound (DSC after CO2 absorption from air). The conditions noted are these: amine compound stood 24 hours in air at 23° C., 50% RH; DSC 23 to 250° C., 10° C./minute, nitrogen. As for the experimental part:
A carbon dioxide concentration meter and a petri dish were placed inside an openable desiccator (Internal Dimension: 370 mm×260 mm×272 mm). […] An initial concentration of carbon dioxide was adjusted to about 400 ppm. Then, the amine compound was removed from the desiccator to obtain the amine compound with carbon dioxide absorbed. The DSC measurement was performed on the amine compound with carbon dioxide absorbed as follows, to measure the maximum carbon dioxide release temperature of the amine compound. First, the differential scanning calorimetry was performed on the amine compound using the differential thermogravimetric analyzer (Product Name: DTG-60 produced by Shimadzu Corporation) under the conditions of 23 to 250° C. of a measurement temperature range, 10° C./minute of the heating rate, and the nitrogen atmosphere. From the DSC curve obtained thereby, the temperature at which the endothermic amount associated with the desorption of carbon dioxide reached the maximum was calculated, and the temperature thereof was used as the maximum carbon dioxide release temperature of the amine compound.

Data set [3] can be described thus: Maximum endothermic temperature of amine compound (DSC). The following applies: DSC 23 to 350° C., 10° C./minute, nitrogen; volatilization of the amine compound. As for the experimental part:
DSC measurements were performed on the amine compounds to measure the maximum endothermic temperature of the amine compounds as follows. First, a differential scanning calorimetry was performed on the amine compounds using a differential thermogravimetric analyzer (Product Name: DTG-60 produced by Shimadzu Corporation) under conditions of 23 to 350° C. of a measurement temperature range, 10° C./minute of a heating rate, and a nitrogen atmosphere. From the DSC curve obtained thereby, the temperature at which the endothermic amount associated with the volatilization of the amine compound reached the maximum was calculated, and the temperature thereof was used as the maximum endothermic temperature of the amine compound.

Data set [4] can be described thus: Amine value of amine compound (JIS K7237-1995 titration). The conditions noted are these: 0.1 N perchloric acid-acetic acid titration. As for the experimental part:
The amine value was measured by the following measurement method in accordance with JIS K7237-1995. • (1) Dissolving 0.1 g of the amine compound in 20 mL of the acetic acid. • (2) Calculating the amine value by titrating the solution obtained in the above (1) with the 0.1 N perchloric acid-acetic acid solution using the automatic potentiometric titrator (AT-610 produced by Kyoto Electronics Manufacturing Co., Ltd.).

Consider `NCCCNCC1CCCC(CNCCCN)C1` (stereo not shown) [1,3-BAC-BisAP], for which the pKa in data set [1] is 9.5.

`NCCCN(CCCN)CC1CCCC(CN(CCCN)CCCN)C1` (stereo not shown) [1,3-BAC-tetraAP]: in data set [2], the “Maximum CO2 Release Temperature” value is 102.3 °C. Besides, the “Maximum Endothermic Temperature” value in data set [3] is 298.2 °C. Moreover, in data set [4], the “Amine Value” stood at 890 mgKOH/g. Moreover, in data set [1], the pKa stood at 9.8.

As to `NCCN1CCNCC1` [AEP, 2-aminoethylpiperazine], the “Maximum CO2 Release Temperature” value in data set [2] was found to be 81.9 °C. Moreover, the “Maximum Endothermic Temperature” value in data set [3] was found to be 118.4 °C. For the same compound, the “Amine Value” in data set [4] turned out to be 1154 mgKOH/g. In data set [1], this compound had a pKa of 10.1.

In data set [1], `NCCNCCNCCN` [TETA, triethylenetetramine] displayed a pKa of 10.3.

A word on the pKa: it is the negative logarithm of the acid dissociation constant.
